4 compounds from patent publication US10174202B2, “Dyes with phosphinic acid, phosphinate, phosphonate and phosphonamidate substituents as auxochromic groups and methods for preparing the same” (Max-Planck-Gesellschaft zur Foerderung der Wissenschaften …, priority 2017, dated 2019) can be followed below.

SMILES strings stand for the structures. Several values for one entry are separate records, joined by “and”; a condition that tells them apart may be missing. Equal entries are not always repeated. Marks after values point to notes of the source that are not given here.

Data set [1] deals with vimentin-HaloTag fusion protein in a living HeLa cell. The experiment in a line: Confocal and STED imaging of vimentin-HaloTag in living cells. In kind it is cell-based. Also noted: key to verified as a label in STED microscopy: verified as a label in super-resolution microscopy based on stimulated emission depletion (STED with 775 nm STED laser). As to the method:
(§1) STED and confocal counterpart images were acquired using the commercially available two-color STED 775 quad scanning microscope from Abberior Instruments (Gottingen, Germany) equipped with an Olympus IX83 microscope stand and an Olympus UplanSApo 100×/1.4 OIL objective. Dyes were excited respective their excitation; the STED laser was pulsed at 775 nm.
(§2) For these experiments, STED optical microscopy was performed as indicated above.
The vimentin-HaloTag was labeled with 16-Halo (1 μM for 20 min at growth conditions, 10 min wash) and excited using a pulsed 594 nm laser. Fluorescence was detected in both available detection channels (605-625 nm, 655-715nm) and summed up for the final images. Scale bar: 4 μm; pixel dwell time: 10 μs; pixel size: 20 nm for both the STED and the confocal image. Each line was scanned four times, and the counts were accumulated.

Data set [2] in a line: Emission spectra and fluorescence quantum yield. In kind it is physicochemical. As for the experimental part: (§3) Absorption spectra were recorded with a Varian Cary 4000 UV-Vis double-beam spectrophotometer (Agilent Technologies, USA). For the determination of the absorption spectra, quartz cells with a 1 cm path length were used. Emission spectra and fluorescence quantum yield were obtained on a Quantaurus-QY Absolute PL quantum yield spectrometer C11347 (Hamamatsu Photonics, Japan) or on a Varian Cary Eclipse fluorescence spectrometer (Agilent Technologies, USA).

The nature of data set [3]: Absorption spectroscopy (UV/Vis). In kind it is physicochemical. As to the method:
as §3

The nature of another data set: Fluorescence lifetime. In kind it is physicochemical. The following applies: in aq. PBS, pH 7.4.
The test system of data set [4] is tubulin filaments in a methanol-fixed Vero cell. Description: Confocal and STED imaging of immunolabelled tubulin filaments. The format is cell-based. Set-up: key to verified as a label in STED microscopy: verified as a label in super-resolution microscopy based on stimulated emission depletion (STED with 775 nm STED laser). As for the experimental part: as §1, §2
Tubulin was marked using a mouse monoclonal primary antibody against alpha-tubulin together with secondary antibody detection (sheep-anti-mouse conjugated with the dye 23-NHS). 23 was excited using a pulsed 485 nm laser. Fluorescence was detected in both available detection channels (605-625 nm, 655-715nm) and summed up for the final images. Scale bar: 4 μm; pixel dwell time: 10 μs; pixel size: 25 nm for both the STED and the confocal image. Each line in the STED channel was scanned twice, and the counts were accumulated.

For `CCN(CC)CC.CN(CCCCCC(=O)[O-])C(=O)CCP(=O)(O)c1c2ccc(N(C)C)cc2[o+]c2cc(N(C)C)ccc12` [Compound 16, Triethylammonium 6-[3-[[3,6-bis(dimethylamino)-9H-xanthenylium-9-yl]oxidophosphoryl]-N-methylpropanamido]hexanoate], the “verified as a label in STED microscopy” value in data set [1] (STED with 775 nm STED laser) is “good^f”. In data set [2] (pH 7.4), the Emission max. is 636 nm and 636 ^ (0.30)^b nm; the Stokes shift is recorded as 33^b nm. Besides, in data set [3] (pH 7.4), the “ε at absorption max.” value was 10750 M⁻¹ cm⁻¹.

For the compound `CN(C)c1ccc2c(P(=O)([O-])CCC(=O)NCCOCCOCCCCCCCl)c3ccc(=[N+](C)C)cc-3oc2c1` [Compound 16-Halo, 3-[[2[2-(6-chlorohexyloxy)ethoxy]ethyl]amino]-3-oxopropyl[6-(dimethylamino)-3-(dimethyliminio)-3H-xanthen-9-yl]phosphinate], the “labelling of vimentin-HaloTag” value in data set [1] (1 μM for 20 min at growth conditions, 10 min wash, excitation 594 nm) was “labeled”.

Regarding `CN(C)c1ccc2c([PH](=O)O)c3ccc(N(C)C)cc3[n+](CCCC(=O)O)c2c1.O=C([O-])C(F)(F)F` [Compound 23, 10-(3-Carboxypropyl)-3,6-bis(dimethylamino)-9-(hydroxyhydrophosphoryl)acridinium trifluoroacetate], in “Fluorescence lifetime”, the fluorescence lifetime is 1.36 ns. In addition, the “QY (fluorescence quantum yield, Φfl)” value in data set [2] (in aq. PBS, pH 7.4) was 0.14 and 0.10. Further, in data set [2] (in methanol), the Emission max. stood at 579 nm and the “QY (fluorescence quantum yield, Φfl)” value came to 0.75. Moreover, in data set [3] (in aq. PBS, pH 7.4), the Absorption max. turned out to be 535 nm and the “ε at absorption max.” value was 38000 M⁻¹ cm⁻¹. In data set [3] (in methanol), the Absorption max. stood at 527 nm and the “ε at absorption max.” value was determined as 67000 M⁻¹ cm⁻¹. In addition, the “verified as a label in STED microscopy” value in data set [4] (STED with 775 nm STED laser) is “f”.

With `CN(C)c1ccc2c([PH](=O)[O-])c3ccc(N(C)C)cc3[n+](CCCC(=O)ON3C(=O)CCC3=O)c2c1` [Compound 23-NHS, [10-(3-Carboxypropyl)-3,6-bis(dimethylamino)acridinium-9-yl]phosphinate NHS ester], the “labelling of tubulin via secondary antibody conjugate” value in data set [4] (sheep-anti-mouse antibody conjugated with the dye, excitation 485 nm) is recorded as “marked”.
